Laboratory results published in patent US20140275078A1, “COMPOSITIONS AND METHODS FOR TREATING CANCER USING PI3KB INHIBITOR AND MAPK PATHWAY INHIBITOR, INCLUDING MEK AND RAF INHIBITORS” (SANOFI, priority 2011, published 2014).
“And” between values parts separate entries of the source, which are not always exact repeats. Identical values can stand only once. Like-named read-outs stand apart in the source and are kept apart here.

Legend:
[1] = test system: human melanoma tumors WM-266.4; settings: for tolerability (body weight loss): Cpd (2a) 25 and 10 mg/kg qd, Cpd (2b) 100 and 50 mg/kg qd, single agents or combination
[2] = test system: human melanoma tumors UACC-62; test: Antitumor activity against subcutaneous UACC-62 tumors in SCID female mice; settings: for tolerability (body weight loss): single agents or combination
[3] = test system: human melanoma cell line UACC-62; test: Cell proliferation (CelltiterGlo, ray design) in UACC-62; format: cell-based; settings: single agent, 96 hours, 4-parameter logistic model
Protocol: The human melanoma UACC-62 cell line was purchased at NCI (Batch 0503000). The UACC-62 cells were cultured in RPMI1640 medium supplemented with 10% FBS and 2 mM L-Glutamine.
They were diluted in cascade, in DMSO and then diluted 50-fold in culture medium containing 10% serum before being added onto cells with a 20-fold dilution factor. The final concentrations tested were defined by Ray design described in Table 1. The DMSO concentration was 0.1% in controls and in all treated wells.
(§1) UACC-62 cells were plated at 2500 cells/well in 96-well plates in appropriate culture medium and incubated 6 hours at 37° C., 5% CO2. […] Cell growth was evaluated by measuring intracellular ATP using CelltiterGlo® reagent (Promega) according to the manufacturer's protocol. Briefly, Cell Titer Glo was added to each plate, incubated for 1 hour then luminescent signal was read on the MicroBeta Luminescent plate reader. All plates were run in duplicate. All assays were run at least in duplicate.
(§2) Inhibition of cell growth was estimated after treatment with compound or combination of compounds for four days and comparing the signal to cells treated with vehicle (DMSO).
Growth inhibition percentage (GI %) was calculated according to the following equation: GI %=100*(1−((X−BG)/(TC−BG)) […]

[4] = Chemical stability of dosing stock solution; settings: oral dosing formulation of each compound; in the dark at RT
[5] = test system: human primary colon tumors CR-IGR-014P; settings: Ex. 8, Cpd (I) 150 mg/kg bid
[6] = test system: human melanoma cell line WM-266-4; test: Cell proliferation (CelltiterGlo, ray design) in WM-266-4; format: cell-based; settings: single agent, 96 hours, 4-parameter logistic model
Protocol: as §1, §2
Growth inhibition percentage (GI %) was calculated according to the following equation: GI %=100*(1−((X−BG)/(TC−BG))
A global non linear mixed model using NLMIXED procedure of SAS V9.2 was applied to fit simultaneously the concentration-responses curves for each ray. The combination index
of each ray i and its 95% confidence interval was then estimated using the following equation: […]
where IC40A and IC40B are the concentrations of compound A and compound B necessary to obtain 40% of inhibition for each compound alone and CA and CB are the concentrations of compound A and compound B in the mixture necessary to obtain 40% of inhibition.
The human melanoma WM-266-4 cell line was purchased at ATCC (Ref number CRL-1676 Batch 3272826). The WM-266-4 cells were cultured in RPMI1640 medium supplemented with 10% FBS and 2 mM L-Glutamine.
Materials and Methods are the same described in example 1.
The human melanoma WM-266-4 cell line was purchased at ATCC (Ref number CRL-1676 Batch 3272826). The WM-266.4 cells were cultured in RPMI1640 medium supplemented with 10% FBS and 2 mM L-Glutamine.

PI3K gamma = PI3K gamma (Homo sapiens, UniProt P48736); settings: cited from earlier work
Sequence of PI3K gamma (P48736 whole entry): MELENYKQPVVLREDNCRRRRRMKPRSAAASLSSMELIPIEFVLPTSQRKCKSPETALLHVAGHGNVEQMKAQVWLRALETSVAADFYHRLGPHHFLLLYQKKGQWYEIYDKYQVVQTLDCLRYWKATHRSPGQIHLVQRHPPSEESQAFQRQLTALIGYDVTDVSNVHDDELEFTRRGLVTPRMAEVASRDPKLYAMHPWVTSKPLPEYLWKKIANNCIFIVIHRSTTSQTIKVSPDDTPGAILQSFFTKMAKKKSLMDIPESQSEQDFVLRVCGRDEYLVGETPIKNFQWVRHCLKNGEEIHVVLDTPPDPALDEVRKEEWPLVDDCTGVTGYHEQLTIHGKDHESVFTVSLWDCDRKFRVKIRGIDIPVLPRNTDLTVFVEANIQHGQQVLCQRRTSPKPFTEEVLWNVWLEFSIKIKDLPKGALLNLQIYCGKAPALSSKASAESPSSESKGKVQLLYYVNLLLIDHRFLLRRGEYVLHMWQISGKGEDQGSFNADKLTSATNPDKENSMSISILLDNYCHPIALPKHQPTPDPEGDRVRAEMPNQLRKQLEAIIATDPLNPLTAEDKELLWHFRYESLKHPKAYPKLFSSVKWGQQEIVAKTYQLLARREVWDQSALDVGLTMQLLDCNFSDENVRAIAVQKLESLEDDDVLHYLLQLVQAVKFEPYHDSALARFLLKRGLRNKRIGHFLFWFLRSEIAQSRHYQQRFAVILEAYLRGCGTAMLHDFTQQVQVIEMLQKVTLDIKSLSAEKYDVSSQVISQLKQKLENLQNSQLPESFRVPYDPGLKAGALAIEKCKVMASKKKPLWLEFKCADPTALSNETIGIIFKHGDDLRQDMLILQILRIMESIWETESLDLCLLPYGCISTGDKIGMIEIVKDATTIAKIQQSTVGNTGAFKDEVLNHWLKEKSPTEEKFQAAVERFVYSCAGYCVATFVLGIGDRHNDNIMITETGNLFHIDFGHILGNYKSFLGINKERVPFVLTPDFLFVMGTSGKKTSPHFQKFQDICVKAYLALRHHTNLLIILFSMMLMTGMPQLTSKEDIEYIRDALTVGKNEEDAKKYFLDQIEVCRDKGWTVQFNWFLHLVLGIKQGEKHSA

[7] = Ex. 7, PO d21-31, Cpd (I) 150 mg/kg bid, Cpd (2a) 10 mg/kg qd, alone or combined
[8] = Ex. 5, PO d11-22, Cpd (I) 150 mg/kg bid, Cpd (2a) 10 mg/kg qd, alone or combined
[9] = PO d20-36, Cpd (2a) 10 mg/kg qd, alone or combined
[10] = Ex. 7, Cpd (I) 150 mg/kg bid, Cpd (2b) 50 mg/kg qd, alone or combined, Day 24
[11] = Ex. 7, Cpd (I) 150 mg/kg bid, Cpd (2b) 50 mg/kg qd, alone or combined, Day 27
[12] = Ex. 7, Cpd (I) 150 mg/kg bid, Cpd (2b) 50 mg/kg qd, alone or combined, Day 29
[13] = Ex. 7, Cpd (I) 150 mg/kg bid, Cpd (2b) 50 mg/kg qd, alone or combined, Day 31
[14] = Ex. 7, Cpd (I) 150 mg/kg bid, Cpd (2b) 50 mg/kg qd, alone or combined, Global
[15] = Ex. 7, Cpd (I) 150 mg/kg bid, Cpd (2b) 100 mg/kg qd, alone or combined, Day 24
[16] = Ex. 7, Cpd (I) 150 mg/kg bid, Cpd (2b) 100 mg/kg qd, alone or combined, Day 27
[17] = Ex. 7, Cpd (I) 150 mg/kg bid, Cpd (2b) 100 mg/kg qd, alone or combined, Day 29
[18] = Ex. 7, Cpd (I) 150 mg/kg bid, Cpd (2b) 100 mg/kg qd, alone or combined, Day 31
[19] = Ex. 7, Cpd (I) 150 mg/kg bid, Cpd (2b) 100 mg/kg qd, alone or combined, Global
[20] = Ex. 6, Cpd (I) 151.5 mg/kg bid, Cpd (2b) 50 mg/kg qd, alone or combined, Day 11
[21] = Ex. 6, Cpd (I) 151.5 mg/kg bid, Cpd (2b) 50 mg/kg qd, alone or combined, Day 13
[22] = Ex. 6, Cpd (I) 151.5 mg/kg bid, Cpd (2b) 50 mg/kg qd, alone or combined, Day 15
[23] = Ex. 6, Cpd (I) 151.5 mg/kg bid, Cpd (2b) 50 mg/kg qd, alone or combined, Global
[24] = Ex. 6, Cpd (I) 151.5 mg/kg bid, Cpd (2b) 100 mg/kg qd, alone or combined, Day 11
[25] = Ex. 6, Cpd (I) 151.5 mg/kg bid, Cpd (2b) 100 mg/kg qd, alone or combined, Day 13
[26] = Ex. 6, Cpd (I) 151.5 mg/kg bid, Cpd (2b) 100 mg/kg qd, alone or combined, Day 15
[27] = Ex. 6, Cpd (I) 151.5 mg/kg bid, Cpd (2b) 100 mg/kg qd, alone or combined, Global
[28] = Ex. 6, PO d8-15, Cpd (I) 151.5 mg/kg bid, Cpd (2b) 100 mg/kg qd, alone or combined

SMILES: Cn1cnc2c(F)c(Nc3ccc(Br)cc3Cl)c(C(=O)NOCCO)cc21 [Compound (2a), 1H-Benzimidazole-6-carboxamide, 5-[(4-bromo-2-chlorophenyl)amino]-4-fluoro-N-(2-hydroxyethoxy)-1-methyl]
- tolerability (body weight loss) ([1]; Ex. 7, Cpd (I) 150 mg/kg bid): induced a higher bwl as compared to the control
- Average body weight change in % per mouse at nadir [1, 7]: −10.5%
- Drug death (Day of death) [1, 7]: 0/7
- day of nadir [1, 7]: 31 days
- ΔT/ΔC % (day 31) [1, 7]: 36%
- tolerability (body weight loss) ([2]; Ex. 5, Cpd (I) 150 mg/kg bid, Cpd (2a) 25 and 10 mg/kg qd): well tolerated inducing minimal bwl
- Average body weight change in % per mouse at nadir [2, 8]: −4.3%
- Drug death (Day of death) [2, 8]: 0/7
- day of nadir [2, 8]: 21 days
- ΔT/ΔC % (day 22) [2, 8]: 35%
- Absolute IC40 ([3]; example 1): 27 nM
- stock solution chemically stable [4]: 7 days
- tolerability (body weight loss) ([5]; Cpd (2a) 25 and 10 mg/kg qd, single agents or combination): well tolerated inducing minimal bwl
- Average body weight change in % per mouse at nadir [5, 9]: −4.2%
- Drug death (Day of death) [5, 9]: 0/7
- day of nadir [5, 9]: 27 days
- ΔT/ΔC % (day 36) [5, 9]: 84%
- Absolute IC40 ([6]; example 3): 33 nM

SMILES: C[C@H]1Cc2ccccc2N1C(=O)Cc1nc(N2CCOCC2)cc(=O)[nH]1 [Compound (I), 2-{2-[(2S)-2-methyl-2,3-dihydro-1H-indol-1-yl]-2-oxoethyl}-6-(morpholin-4-yl)pyrimidin-4(3H)-one]
- Tumor volume changes from baseline: Median (nMad) [1, 10]: 54 (53.4)
- Tumor volume changes from baseline: Median (nMad) [1, 11]: 132 (62.3)
- Tumor volume changes from baseline: Median (nMad) [1, 12]: 162 (47.4)
- Tumor volume changes from baseline: Median (nMad) [1, 13]: 272 (20.8)
- Tumor volume changes from baseline: Median (nMad) [1, 14]: 138 (100.8)
- Tumor volume changes from baseline: Median (nMad) [1, 15]: 54 (53.4)
- Tumor volume changes from baseline: Median (nMad) [1, 16]: 132 (62.3)
- Tumor volume changes from baseline: Median (nMad) [1, 17]: 162 (47.4)
- Tumor volume changes from baseline: Median (nMad) [1, 18]: 272 (20.8)
- Tumor volume changes from baseline: Median (nMad) [1, 19]: 138 (100.8)
- Tumor volume changes from baseline: Median (nMad) [2, 20]: 54 (62.3)
- Tumor volume changes from baseline: Median (nMad) [2, 21]: 145 (71.2)
- Tumor volume changes from baseline: Median (nMad) [2, 22]: 303 (63.8)
- Tumor volume changes from baseline: Median (nMad) [2, 23]: 145 (89)
- Tumor volume changes from baseline: Median (nMad) [2, 24]: 54 (62.3)
- Tumor volume changes from baseline: Median (nMad) [2, 25]: 145 (71.2)
- Tumor volume changes from baseline: Median (nMad) [2, 26]: 303 (63.8)
- Tumor volume changes from baseline: Median (nMad) [2, 27]: 145 (89)
- Average body weight change in % per mouse at nadir [2, 28]: −2.9%
- Drug death (Day of death) [2, 28]: 0/7
- day of nadir [2, 28]: 15 days
- ΔT/ΔC % (day 15) [2, 28]: 39%
- stock solution chemically stable [4]: 7 days
- IC50 (PI3K gamma): > 10 µM
- Absolute IC40 ([6]; example 3): 834 nM

SMILES: CCCS(=O)(=O)Nc1ccc(F)c(C(=O)c2c[nH]c3ncc(-c4ccc(Cl)cc4)cc23)c1F [Compound (2b), 1-Propanesulfonamide, N-[3-[[5-(4-chlorophenyl)-1H-pyrrolo[2,3-b]pyridin-3-yl]carbonyl]-2,4-difluorophenyl]]
- tolerability (body weight loss) ([1]; Ex. 7, Cpd (I) 150 mg/kg bid): well tolerated
- Tumor volume changes from baseline: Median (nMad) [1, 10]: 116 (11.9)
- Tumor volume changes from baseline: Median (nMad) [1, 11]: 254 (118.6)
- Tumor volume changes from baseline: Median (nMad) [1, 12]: 322 (94.9)
- Tumor volume changes from baseline: Median (nMad) [1, 13]: 442 (60.8)
- Tumor volume changes from baseline: Median (nMad) [1, 14]: 274 (228.3)
- Tumor volume changes from baseline: Median (nMad) [1, 15]: 36 (26.7)
- Tumor volume changes from baseline: Median (nMad) [1, 16]: 171 (40)^
- Tumor volume changes from baseline: Median (nMad) [1, 17]: 226 (86)^
- Tumor volume changes from baseline: Median (nMad) [1, 18]: 441 (96.4)
- Tumor volume changes from baseline: Median (nMad) [1, 19]: 193.5 (200.2)^
- ΔT/ΔC % (day 31) ([1]; Ex. 7, PO d21-31, Cpd (I) 150 mg/kg bid, Cpd (2b) 50 mg/kg qd, alone or combined): > 40%
- ΔT/ΔC % (day 31) ([1]; Ex. 7, PO d21-31, Cpd (I) 150 mg/kg bid, Cpd (2b) 50 mg/kg qd, alone or combined, listed as Cpd. 2b): 59%
- ΔT/ΔC % (day 31) ([1]; Ex. 7, PO d21-31, Cpd (I) 150 mg/kg bid, Cpd (2b) 100 mg/kg qd, alone or combined): > 40%
- ΔT/ΔC % (day 31) ([1]; Ex. 7, PO d21-31, Cpd (I) 150 mg/kg bid, Cpd (2b) 100 mg/kg qd, alone or combined, listed as Cpd. 2b): 59%
- Average body weight change in % per mouse at nadir ([1]; mouse, in vivo): −6.6 (31) %
- Tumor volume changes from baseline: Median (nMad) [2, 20]: 62 (16.3)
- Tumor volume changes from baseline: Median (nMad) [2, 21]: 157 (132)
- Tumor volume changes from baseline: Median (nMad) [2, 22]: 240 (132)^
- Tumor volume changes from baseline: Median (nMad) [2, 23]: 154 (136.4)
- Tumor volume changes from baseline: Median (nMad) [2, 24]: 54 (60.8)
- Tumor volume changes from baseline: Median (nMad) [2, 25]: 126 (74.1)
- Tumor volume changes from baseline: Median (nMad) [2, 26]: 152 (161.6)
- Tumor volume changes from baseline: Median (nMad) [2, 27]: 98 (89)^
- tolerability (body weight loss) ([2]; Ex. 6, Cpd (I) 151.5 mg/kg bid, Cpd (2b) 100 and 50 mg/kg qd): well tolerated inducing minimal bwl
- ΔT/ΔC % (day 15) [2, 28]: 20%
- Average body weight change in % per mouse at nadir ([2]; mouse, in vivo): −3.7 (13) % and −1.7 (15) %
- Absolute IC40 ([3]; example 2): 18 nM and 17.7 nM
- stock solution chemically stable [4]: 7 days
- Absolute IC40 ([6]; example 4): 35 nM
